Where two headings read alike, the source gives them in different places.
Tests used:
p-ERK^T202/Y204 = test: Quantitative immunofluorescence of p-ERK in MeWo cells; format: cell-based, human; conditions: 6 h, different concentrations
p-AKT^S473 = test: Quantitative immunofluorescence of p-AKT in MeWo cells; format: cell-based, human; conditions: 6 h, different concentrations
[1] = test system: NF1^LoF melanoma cell lines; test: Growth rate inhibition assay; format: cell-based, human; conditions: for Normalized growth rate (DIP rate) dose response: nine NF1^LoF melanoma cell lines, 7 day-averaged, four concentrations; for Overall drug sensitivity (area over the dose-response curve): NF1^LoF cell lines
p-4EBP1^T37/46 = test: Quantitative immunofluorescence of p-4EBP1 in MeWo cells; format: cell-based, human; conditions: 6 h, different concentrations
DNA-PK = DNA-PK (Homo sapiens, UniProt P78527); test: Biochemical kinase inhibition assay; conditions: 10 μM
PI4KB = PI4KB (Homo sapiens, UniProt Q9UBF8); test: Biochemical kinase inhibition assay; conditions: 10 μM
SYK = SYK (Homo sapiens, UniProt P43405); test: Biochemical kinase inhibition assay
mTOR = mTOR (Homo sapiens, UniProt P42345); test: Biochemical kinase inhibition assay; conditions: 10 μM
YUHEF cells = conditions: R406 3.16 μM, 72 h
MeWo cells = conditions: R406 3.16 μM, 72 h
WM3918 xenografts = test: In vivo xenograft assay, WM3918; parameters: species or system mouse; conditions: 50 mg/kg IP
[2] = test system: p-AKT^S473 in WM3918 xenograft tumors; test: Xenograft pharmacodynamic Western blot; format: in vivo, mouse; conditions: single dose 100 mg/kg IP; 0.5 h after dosing
[3] = test system: human epidermal primary melanocytes (NHEM-Ad); test: Growth rate inhibition assay, primary melanocytes; format: cell-based; conditions: highest concentration (1 μM)
[4] = test system: p-EGFR^Y1068 in WM3918 xenograft tumors; test: Xenograft pharmacodynamic Western blot; format: in vivo, mouse; conditions: single dose 100 mg/kg IP; 0.5 h after dosing
p-BLNK^Y96 = test: Western blot of p-BLNK in IgM-stimulated Ramos cells; format: cell-based, human; conditions: 6 h
COLO792 xenografts = test: In vivo xenograft assay, COLO792; parameters: species or system mouse; conditions: 50 mg/kg IP

CC(=O)Nc1cccc(-n2c(=O)n(C3CC3)c(=O)c3c(Nc4ccc(I)cc4F)n(C)c(=O)c(C)c32)c1 [trametinib]
Change in p-ERK^T202/Y204 levels (p-ERK^T202/Y204): reduced ERK phosphorylation in a dose-dependent manner | Change in p-AKT^S473 levels (p-AKT^S473): but not trametinib, decreased p-AKT levels | Normalized growth rate (DIP rate) dose response [1]: potent but less efficacious responses | Change in p-4EBP1^T37/46 levels (p-4EBP1^T37/46): no effect

CS(=O)(=O)Nc1cc(-c2ccc3ncnc(Nc4ccc(F)c(Cl)c4)c3c2)cnc1Cl [MTX-211, N-(2-chloro-5-(4-((3-chloro-4-fluorophenyl)amino)quinazolin-6-yl)pyridin-3-yl)methanesulfonamide]
Inhibition of DNA-PK (DNA-PK): inhibited | Change in p-ERK^T202/Y204 levels (p-ERK^T202/Y204): no significant effect | Inhibition of PI4KB (PI4KB): inhibited | Change in p-AKT^S473 levels (p-AKT^S473): decreased p-AKT levels in a dose-dependent manner | IC50 (SYK; SYK IC50, 0.5 nM to 10 μM, ATP at Km,app): ~6 µM | inhibition at 10 µM (SYK; read-out: % inhibition of SYK): 52% | Change in p-4EBP1^T37/46 levels (p-4EBP1^T37/46): did not decrease p-4EBP1 levels at concentrations below 1 μM | Inhibition of mTOR (mTOR): inhibited

Cc1nc(-c2nc(-c3ccc(OC(F)(F)F)cc3)no2)nn1Cc1cccc(N2CCC(S(C)(=O)=O)CC2)c1 [IACS-010759]
Overall drug sensitivity (area over the dose-response curve) [1]: similarly sensitive to both IACS-010759 and MTX-216 | Growth inhibition (live cell count, normalized growth rate) ([1]; all tested NF1^LoF cell lines, indicated doses): inhibited growth in a dose-dependent fashion

COc1ccc(-c2ccc3c(N4CCOC[C@@H]4C)nc(N4CCOC[C@@H]4C)nc3n2)cc1CO [AZD8055]
Change in p-ERK^T202/Y204 levels (p-ERK^T202/Y204): no significant effect | Change in p-AKT^S473 levels (p-AKT^S473): decreased p-AKT levels in a dose-dependent manner | Change in p-4EBP1^T37/46 levels (p-4EBP1^T37/46): potently reduced

COc1cc(Nc2ncc(F)c(Nc3ccc4c(n3)NC(=O)C(C)(C)O4)n2)cc(OC)c1OC [R406]
p-S6 and Ki-67 levels (YUHEF cells): reduced p-S6 and Ki-67 | p-S6 and Ki-67 levels (MeWo cells): reduced p-S6 and Ki-67 | Reduction of growth rate ([1]; MeWo, YUHEF and WM3918, R406 at 3.16 μM, 7-day): approximately 2 fold

CC(C)Nc1cc(-c2c[nH]c(C(=O)N[C@H](CO)c3cccc(Cl)c3)c2)c(Cl)cn1 [ulixertinib]
Normalized growth rate (DIP rate) dose response [1]: potent but less efficacious responses

CS(=O)(=O)N1CCN(Cc2cc3nc(-c4cccc5[nH]ncc45)nc(N4CCOCC4)c3s2)CC1 [pictilisib]
Change in p-ERK^T202/Y204 levels (p-ERK^T202/Y204): no significant effect | Change in p-AKT^S473 levels (p-AKT^S473): decreased p-AKT levels in a dose-dependent manner | Change in p-4EBP1^T37/46 levels (p-4EBP1^T37/46): did not decrease p-4EBP1 levels at concentrations below 1 μM

N-(2-chloro-5-(4-((3-chloro-4-fluorophenyl)amino)-3-cyanoquinolin-6-yl)pyridin-3-yl)methanesulfonamide [MTX-216]
Inhibition of DNA-PK (DNA-PK): inhibited | Body weight (WM3918 xenografts): no major loss in body weight | Tumor growth (WM3918 xenografts; 11 days): suppressed tumor growth | p-AKT levels in excised tumors [2]: significant reduction | Cytotoxicity (normalized growth rate) [3]: no cytotoxicity | p-EGFR levels in excised tumors [4]: significant reduction | Change in p-ERK^T202/Y204 levels (p-ERK^T202/Y204): no significant effect | Inhibition of PI4KB (PI4KB): inhibited | Change in p-AKT^S473 levels (p-AKT^S473): decreased p-AKT levels in a dose-dependent manner | Overall drug sensitivity (area over the dose-response curve) [1]: similarly sensitive to both IACS-010759 and MTX-216 | Normalized growth rate (DIP rate) dose response [1]: consistently cytotoxic | Inhibition of p-BLNK^Y96 levels (p-BLNK^Y96): more efficient in inhibition of p-BLNK in comparison with MTX-211 | % inhibition of SYK (SYK; 10 μM, ATP at Km,app): 94% | Potency on SYK relative to MTX-211 (SYK; ratio of IC50): ~ 21 fold | IC50 (SYK; read-out: SYK IC50, 0.5 nM to 10 μM, ATP at Km,app): 0.281 µM | Body weight (COLO792 xenografts): no major loss in body weight | Tumor growth (COLO792 xenografts; 20 days): suppressed tumor growth | Change in p-4EBP1^T37/46 levels (p-4EBP1^T37/46): did not decrease p-4EBP1 levels at concentrations below 1 μM | Inhibition of mTOR (mTOR): inhibited
